Values joined by “and” are separate entries in the source; they are usually repeats but may differ in a detail not shown here. Equal values may be shown once.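 How tested: cells in 96-well plates exposed to compound for 48 hours at five concentrations. GI50 marks 50% less growth. At the TGI there is no net growth.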
Experiments:
Assay in all cases: growth of human tumour cells (NCI), 48 h
KM12 colon = test system: KM12 colon
HCC-2998 colon = test system: HCC-2998 colon
SF-539 CNS = test system: SF-539 CNS
NCI-H23 lung = test system: NCI-H23 lung
PC-3 prostate = test system: PC-3 prostate
A498 renal = test system: A498 renal
MCF7 breast = test system: MCF7 breast
SW-620 colon = test system: SW-620 colon
SK-MEL-28 melanoma = test system: SK-MEL-28 melanoma
EKVX NSCLC = test system: EKVX NSCLC

SMILES | GI50 (KM12 colon) | TGI (KM12 colon) | GI50 (HCC-2998 colon) | TGI (HCC-2998 colon) | GI50 (SF-539 CNS) | TGI (SF-539 CNS) | GI50 (NCI-H23 lung) | TGI (NCI-H23 lung) | GI50 (PC-3 prostate) | TGI (PC-3 prostate) | GI50 (A498 renal) | TGI (A498 renal) | GI50 (MCF7 breast) | TGI (MCF7 breast) | GI50 (SW-620 colon) | TGI (SW-620 colon) | GI50 (SK-MEL-28 melanoma) | TGI (SK-MEL-28 melanoma) | GI50 (EKVX NSCLC) | TGI (EKVX NSCLC)
Cn1cc(C2=C(c3cn(C)c4cc(C(N)=O)ccc34)C(=O)NC2=O)c2ccccc21 | 1.02 µM | 6.17 µM | 5.17 µM | > 25 µM | 0.791 µM | 4.24 µM | 1.35 µM | > 25 µM | 0.909 µM | > 25 µM | 0.47 µM | 2.06 µM | 0.949 µM | > 25 µM | 1.27 µM | > 25 µM | 2.66 µM | > 25 µM |  | 
CCN(CC)CCOc1ccc(/C=C2\CC3C4CC=C5C[C@@H](O)CC[C@]5(C)C4CC[C@]3(C)C2=O)cc1OC (some centres undefined) | 3.34 µM | 13.8 µM | 8.43 µM | 21.6 µM | 3.38 µM | 12.7 µM | 7.71 µM | > 60.6 µM | 3.48 µM | > 39.1 µM | 2.84 µM | 9.84 µM | 9.6 µM | 54.5 µM | 2.54 µM | > 20.5 µM | 9.61 µM | 73.4 µM | 9.56 µM | > 52.1 µM
CC(C)=CCc1cc(O)cc2c1OC(C=C(C)C)C1=C2C(=O)C2=C(NCCS2(=O)=O)C1=O (centres undefined) | 4.29 µM | > 16.7 µM | 2.63 µM | 5.19 µM | 2.58 µM | 4.82 µM | 1.91 µM | 6.53 µM | 4.14 µM | > 16.7 µM | 2.94 µM | 5.47 µM | 1.21 µM | 4.92 µM | 2.32 µM | 5.78 µM | 2.39 µM | 5.13 µM | 2.73 µM | 9.57 µM
CS(=O)(=O)CCCn1c(=O)c(Oc2ccc(F)cc2F)cc2cnc(NC3CCOCC3)nc21 | > 25 µM | > 25 µM | > 25 µM | > 25 µM | > 25 µM | > 25 µM | > 25 µM | > 25 µM | > 25 µM | > 25 µM | > 25 µM | > 25 µM | > 25 µM | > 25 µM | > 25 µM | > 25 µM | > 25 µM | > 25 µM |  | 
COC1C(O)=C2C(=O)O/C(C)=C/C=C/C=C/C=C\CC(c3ccccc3)NC(=O)\C=C/C=C\C=C\C=C\[C@@]2(C)[C@@H]1O (some centres undefined) |  | 0.165 µM |  | 0.586 µM |  | 0.047 µM |  |  |  | 0.103 µM |  | 0.318 µM |  | 0.0175 µM |  | 0.139 µM |  | 0.0518 µM |  | 0.279 µM
CC(=O)c1cc2c(o1)C(=O)c1ccccc1C2=O | 0.543 µM and 0.713 µM | 1.62 µM and 2.09 µM | 0.46 µM and 0.261 µM | 0.993 µM and 0.689 µM | 0.178 µM and 0.184 µM | 0.317 µM and 0.328 µM | 0.19 µM and 0.153 µM | 0.535 µM and 0.458 µM | 0.713 µM and 0.825 µM | 2.81 µM and 4.48 µM | 0.682 µM and 1.37 µM | 1.48 µM and 2.69 µM | 0.167 µM and 0.171 µM | 0.394 µM | 0.288 µM and 0.276 µM | 0.794 µM and 0.756 µM | 0.222 µM and 0.292 µM | 0.437 µM and 0.689 µM | 1.19 µM and 1.55 µM | 2.96 µM and 3.41 µM
Cc1csc(Nc2nc(-c3cccc(Br)c3)nc(C(Cl)(Cl)Cl)n2)n1 | 1.58 µM | 4.82 µM | 1.63 µM | 3.57 µM | 3.09 µM | > 100 µM | > 100 µM | > 100 µM | 1.92 µM | > 100 µM | 1.06 µM | 2.47 µM | 1.43 µM | > 100 µM | 3.29 µM | > 100 µM | 3.48 µM | > 100 µM | 1.61 µM | 5.35 µM
O=c1[nH]c(=O)n(C2CC(O)C(CO)O2)cc1CO (centres undefined) | > 100 µM | > 100 µM | > 100 µM | > 100 µM | 21.1 µM | > 100 µM | 31 µM | > 100 µM | > 100 µM | > 100 µM | > 100 µM | > 100 µM | > 100 µM | > 100 µM | > 100 µM | > 100 µM | > 100 µM | > 100 µM |  | 
N=c1ccn2c(n1)OC1C(O)C(CO)OC12 (centres undefined) | 147 µM and > 40.9 µM | > 806 µM | 0.0303 µM |  | 31.9 µM | > 1000 µM | 0.345 µM | 161 µM and > 100 µM | > 100 µM | > 1000 µM | 66.3 µM | > 1000 µM | 0.0703 µM | 361 µM and > 100 µM | 5.76 µM and 1.28 µM | > 1000 µM | 6.3 µM and > 36.5 µM | > 607 µM | > 100 µM | > 1000 µM
N#C/C=C(\c1ccc([N+](=O)[O-])cc1)n1nnc2cc(Cl)c(Cl)cc21 | 2.62 µM | 11.3 µM | 1.77 µM | 3.33 µM | 1.77 µM | 3.26 µM | 2.28 µM | 6.68 µM | 1.56 µM | 4 µM | 1.74 µM | 3.43 µM | 0.738 µM | 3.32 µM | 1.75 µM | 4.15 µM | 2.08 µM | 4.23 µM | 1.91 µM | 4.67 µM
O=C(c1ccc(F)c(F)c1Nc1ccc(I)cc1F)N1CC(O)([C@@H]2CCCCN2)C1 | < 0.0376 µM and 0.28 µM | 13.2 µM and > 10 µM | < 0.015 µM and 0.0194 µM | 0.86 µM and 0.952 µM | 3.22 µM and > 9.01 µM | 18.5 µM and > 10 µM | < 0.0436 µM and 0.129 µM | 10 µM and > 10 µM | 5.57 µM and > 9.27 µM | 18.8 µM and > 10 µM | < 0.0194 µM and 0.0422 µM | 0.134 µM and 0.294 µM | 6.56 µM and > 10 µM | 20.1 µM and > 10 µM | < 0.0215 µM and 0.0563 µM | 14.4 µM and > 10 µM | < 0.01 µM | 0.594 µM | 0.308 µM | > 10 µM
Cc1nc2cnc(N)c(C#Cc3cncc(C(=O)Nc4ccc(CN5CCN(C)CC5)c(C(F)(F)F)c4)c3)c2nc1C |  | 1.44 µM | 0.651 µM | 13.1 µM | 0.313 µM | 3.69 µM | 0.342 µM | 8.67 µM | 1.48 µM | 17.4 µM | 0.18 µM | 1.17 µM | 0.161 µM | 4.04 µM | 0.279 µM | 3.21 µM | 0.166 µM | 1.32 µM | 0.739 µM | 12.6 µM
CCCCCCNC(=O)c1nc(-c2ccccc2)oc1Cc1ccc(OP(=O)(O)O)cc1 | 17.5 µM | 33.2 µM | 18.2 µM | 33.4 µM | 16.9 µM | 32.2 µM | 16.7 µM | 35.4 µM | 17.9 µM | 34.5 µM | 12.5 µM | 25.1 µM | 15.3 µM | 29.9 µM | 16.8 µM | 33.4 µM | 15.9 µM | 30.1 µM |  | 
